In US8980226B2, “Aerosolized fosfomycin/aminoglycoside combination for the treatment of bacterial respiratory infections” (Gilead Sciences, Inc., priority 2004, dated 2015):
Like-named read-outs stand apart in the source and are kept apart here.

Experiments:
Format in all cases: cell-based
P. aeruginosa COR-014 = assay: Multistep resistance analysis (continuous serial passage); conditions: for MIC: Pseudomonas aeruginosa
Method: A single colony of P. aeruginosa COR-014 was inoculated into 5 mL of MHCAB and briefly vortexed. Two-fold serial dilutions of fosfomycin alone covering the range of 1 μg/mL-512 μg/mL, tobramycin alone covering 0.0625 μg/mL-512 μg/mL, and a 9:1 fosfomycin:tobramycin combination covering 0.0625 μg/mL-512 μg/mL were made in CAMHB. Ten microliters of bacterial suspension was pipetted into 3 mL of each antibiotic dilution and incubated statically at 35° C. for 18-24 hours. Tubes with the highest concentration of antibiotic having visible bacterial growth were selected from each antibiotic dilution series and 100 μl of the culture was pipeted into a fresh antibiotic dilution series. Tubes were incubated statically at 35° C. for 18-24 hours. This process was repeated for a total of 28 times. MICs of fosfomycin alone, tobramycin alone, and fosfomycin plus tobramycin were determined for the parent strain and resistant isolates collected after each passage as described in Example 5, Method C.

S. aureus ATCC 29213 = assay: MBC/MIC, broth microdilution
Method: (§1) “Minimal bactericidal concentration (MBC)” means the lowest concentration of antibiotic that results in ≧3 Log10 of bacterial killing.
(§2) The MICs of amikacin, arbekacin, dibekacin, gentamicin, kanamycin, netilimicin, neomycin, streptomycin, and tobramycin alone were determined for P. aeruginosa ATCC 27853 by the broth-microdilution method according to NCCLS standards (NCCLS, 2003). E. coli ATCC 25922 and S. aureus ATCC 29213 were used as quality control stains. Bacterial strains were streaked onto blood agar plates, and incubated at 35° C. for 18 hours. Two to three bacterial colonies from the overnight cultures were inoculated into 3 mL of sterile normal saline, vortexed briefly, and adjusted to a 0.5 McFarland standard (NCCLS, 2003). The bacterial suspension was diluted 1:100 in cation-adjusted Mueller-Hinton broth (hereafter referred to as CAMHB). Fifty microliters of bacterial inoculum (approximately 2×10^5 CFU/mL) was pipeted into individual wells of 96-well plates containing 50 μl of CAMHB (Remel, Lenexa, Kanas) supplemented with 2-fold dilutions of antibiotics ranging in concentration from 0.125 μg/mL to 128 μg/mL. The MIC was defined as the lowest concentration of antibiotic (s) that prevented visible growth after incubation at 35° C. for 18-24 hours.
(§3) The MBCs of fosfomycin, amikacin, arbekacin, dibikacin, gentamicin, kanamycin B, netilimicin, neomycin, streptomycin, or tobramycin alone for P. aeruginosa ATCC 27853, E. coli ATCC 25922, and S. aureus ATCC 29213 were determined by the broth microdilution method according to NCCLS standards (NCCLS, 1999). Bacterial strains were streaked onto blood agar plates and incubated at 35° C. for 18-24 hours. Two to three bacterial colonies from the overnight cultures were inoculated into 3 mL of sterile normal saline, vortexed briefly, and adjusted to a 0.5 McFarland standard (NCCLS, 2003). Fifty microliters of bacterial inoculum (approximately 2×10^5 CFU/mL) was pipeted into individual wells of 96-well plates containing 50 μl of CAMHB (Remel, Lenexa, Kanas) supplemented with 2-fold dilutions of antibiotics ranging in concentration from 0.125 μg/mL to 128 μg/mL. Plates were incubated at 35° C. for 18-24 hours and MIC determined as described in Example 5, Method C. The contents of wells showing no growth (MIC and above) were mixed with a pipetor and duplicate 10 μl samples spread onto blood agar plates. Culture plates were incubated at 35° C. for 18-24 hours and the number of bacterial colonies on each plate enumerated manually. Rejection values were determined by NCCLS methods which considers the final inoculum size, single or double sampling, pipetting error, and the Poisson distribution of sample responses (NCCLS, 1999). […] The MBC was defined as the ≧3 Log10 decrease in CFU/mL of the original inoculum as described by NCCLS standards (NCCLS, 1999). The MBC/MIC ratios were calculated by dividing the MBC by the MIC.

E. coli ATCC 25922 = assay: MBC/MIC, broth microdilution
Method: as §1, §2, §3

P. aeruginosa ATCC 27853 = assay: MBC/MIC, broth microdilution
Method: as §1, §2, §3

[1] = system: 100 P. aeruginosa strains isolated from lung sputum samples from cystic fibrosis patients; assay: MIC50 and MIC90 for 100 P. aeruginosa strains, without mucin; conditions: Pseudomonas aeruginosa
Method: The MICs of fosfomycin alone, tobramycin alone, or combinations of fosfomycin plus tobramycin were determined by the agar-plate dilution method according to NCCLS guidelines (NCCLS, 2003). Bacterial strains were streaked onto Trypic Soy Agar plates (PML Microbiologicals, Wilsonville, Oreg.) containing 5% defibrinated sheep blood (hereafter referred to as blood agar plates) and incubated overnight at 35° C. Two to three bacterial colonies from the overnight cultures were inoculated into 3 mL of sterile normal saline, vortexed briefly, and adjusted to a 0.5 McFarland standard (NCCLS, 2003). The bacterial suspension was diluted 1:40 in sterile normal saline and served as the inoculum. Mueller-Hinton agar plates (hereafter referred to as MHA) were prepared by combining 16 g of agarose (Becton-Dickinson, Sparks, Md.), 22 g of Mueller-Hinton broth powder (Becton-Dickinson, Sparks, Md.), and adjusted to 1 L with distilled water. The agar was sterilized by autoclaving, cooled to 55° C., and supplemented with 25 μg/mL of glucose-6-phosphate (Sigma-Aldrich, St. Louis, Mo.). Twenty-five mL of cooled agar was aliquoted into 50 mL conical tubes and supplemented with appropriate concentrations of antibiotic to achieve concentrations ranging from 0.06 μg/mL to 512 μg/mL. After gently mixing the agar and antibiotic, the suspension was poured into sterile 100 mm petri dishes and allowed to solidify at room temperature. The antibiotic agar plates were inoculated with approximately 2×10^4 CFU/spot with a 48-point inoculator (Sigma-Aldrich, St. Louis, Mo.). The MIC was defined as the lowest concentration of antibiotic (s) that prevented visible growth after incubation for 18-20 hours at 35° C. The efficacy of a particular antibiotic or antibiotic combination on large populations of P. aeruginosa was determined by calculating the MIC50 and MIC90 values. The MIC50 value was defined as the concentration of antibiotic(s) which inhibited 50% of the P. aeruginosa strains. The MIC90 value was defined as the concentration of antibiotic(s) which inhibited 90% of the P. aeruginosa strains (Wiedemann and Grimm, 1996).

[2] = 28 days of continuous exposure, clinical P. aeruginosa strain
[3] = COR014, 168 h, read-out: MIC 7d
[4] = COR014, 336 h, read-out: MIC 14d
[5] = COR014, 504 h, read-out: MIC 21d
[6] = COR014, 672 h, read-out: MIC 28d
[7] = COR014, read-out: MIC of the parent strain

In the case of `C[C@@H]1O[C@@H]1P(=O)(O)O` [Fosfomycin], the “development of resistance on continuous exposure” value (P. aeruginosa COR-014; [2]) is reported as “rapid and dramatic development of resistance”, the MIC (P. aeruginosa COR-014; COR014, 0 h, read-out: MIC 0d) is reported as 16 µg/mL and the MIC (P. aeruginosa COR-014; [3]) is reported as greater than 512 µg/mL. The MIC (P. aeruginosa COR-014; [4]) was greater than 512 µg/mL, the MIC (P. aeruginosa COR-014; [5]) was greater than 512 µg/mL and the MIC (P. aeruginosa COR-014; [6]) was greater than 512 µg/mL. For the same compound, the MIC (P. aeruginosa COR-014; [7]) was 8 µg/mL, the “MBC/MIC S. aureus” value (S. aureus ATCC 29213) was 1 and the “MBC/MIC E. coli” value (E. coli ATCC 25922) was 8. The “MBC/MIC P. aeruginosa” value (P. aeruginosa ATCC 27853) was “≧8”, the “MBC/MIC P. aeruginosa” value (P. aeruginosa ATCC 27853; listed as fosfomycin) was no less than 8 and the MIC50 [1] was 64 µg/mL. For the same compound, the MIC90 [1] was no less than 512 µg/mL.
For `NC[C@H]1O[C@H](O[C@H]2[C@H](O)[C@@H](O[C@H]3O[C@H](CO)[C@@H](O)[C@H](N)[C@H]3O)[C@H](N)C[C@@H]2N)[C@H](N)C[C@@H]1O` [Tobramycin], the “increase in MIC on continuous exposure” value (P. aeruginosa COR-014; [2]) was 128 fold, the MIC (P. aeruginosa COR-014; COR014, 0 h, read-out: MIC 0d) was 0.5 µg/mL and the MIC (P. aeruginosa COR-014; [3]) was 0.5 µg/mL. The MIC (P. aeruginosa COR-014; [4]) was 0.5 µg/mL, the MIC (P. aeruginosa COR-014; [5]) was 32 µg/mL and the MIC (P. aeruginosa COR-014; [6]) was 64 µg/mL. For the same compound, the MIC (P. aeruginosa COR-014; [7]) was 0.5 µg/mL, the “MBC/MIC S. aureus” value (S. aureus ATCC 29213) was 8 and the “MBC/MIC E. coli” value (E. coli ATCC 25922) was 1. For the same compound, the “MBC/MIC P. aeruginosa” value (P. aeruginosa ATCC 27853) was 1, the “MBC/MIC Aminoglycoside” value (P. aeruginosa ATCC 27853; aminoglycoside alone) was 1 and the MIC50 [1] was 2 µg/mL. It also gave an MIC90 [1] of 16 µg/mL.
